One may read the IC50 as the concentration needed to halve the response being measured. Lower therefore signals greater potency.

The source of these data is patent US7645756B2, “Nitrogenous fused heteroaromatic ring derivative” (Banyu Pharmaceutical Co. Ltd., priority 2004, dated 2010).

The test deals with T1, human histamine-3 receptor (Homo sapiens, UniProt Q9Y5N1).
T1 construct: expressed in transfected cells; host or cells: HEK293 and CHO-K1 (membrane preparation)
Briefly: Histamine analogue-binding inhibition test ([35S]GTPγS binding, SPA). The format is biochemical. As to conditions: for IC50: 50% inhibitory concentration to the specific [35S]GTPγS binding, membrane specimen of histamine-3 receptor expressing cells (HEK293, CHO-K1), 20 nM R-methylhistamine, 25° C., 3 hours; for inhibition of the binding of N-alpha-methylhistamine (histamine analogue) to histamine-H3 receptor: summary in words of the table's results. The text has this: A cDNA sequence coding for a human histamine-3 receptor [see International Laid-Open WO00/39164) was cloned with expression vectors pCR2.1, pEF1x (by Invitrogen) and pCI-neo (by Promega). The resulting expression vector was transfected into host cells, HEK293 and CHO-K1 (American Type Culture Collection), according to a cationic lipid process [see Proceedings of the National Academy of Sciences of the United States of America, Vol., 84, p. 7413 (1987)] to obtain histamine-3 receptor expression cells.
A membrane specimen prepared from the cells having expressed a histamine-3 receptor was incubated in an assay buffer (50 mM Tris buffer, 100 mM NaCl, 5 mM MgCl2, pH 7.4) along with a test compound, 20 nM R-methylhistamine (histamine analogue, by Sigma), 10?M GDP (guanine nucleotide diphosphate, by Sigma), 200 pM [^35S]GTPγS (guanine nucleotide triphosphate analogue, by Amersham) and SPA resin (W heat germ agglutinin SPA beads, by Amersham) therein, on a 96-well optiplate (by Packard) at 25° C. for 3 hours, then centrifuged at 3,000 rpm, and the activity was determined with Topcount (by Packard). The non-specific binding was determined in the presence of 10 μM GTPγS (by Sigma), and the 50% inhibitory concentration (IC50) of the test compound to the specific [^35S]GTPγS binding was calculated [see British Journal of Pharmacology, Vol. 135, p. 383 (2002)].
In general terms: Binding of GTPγS marks nucleotide exchange on a G protein.

T1 sequence (Q9Y5N1 whole entry): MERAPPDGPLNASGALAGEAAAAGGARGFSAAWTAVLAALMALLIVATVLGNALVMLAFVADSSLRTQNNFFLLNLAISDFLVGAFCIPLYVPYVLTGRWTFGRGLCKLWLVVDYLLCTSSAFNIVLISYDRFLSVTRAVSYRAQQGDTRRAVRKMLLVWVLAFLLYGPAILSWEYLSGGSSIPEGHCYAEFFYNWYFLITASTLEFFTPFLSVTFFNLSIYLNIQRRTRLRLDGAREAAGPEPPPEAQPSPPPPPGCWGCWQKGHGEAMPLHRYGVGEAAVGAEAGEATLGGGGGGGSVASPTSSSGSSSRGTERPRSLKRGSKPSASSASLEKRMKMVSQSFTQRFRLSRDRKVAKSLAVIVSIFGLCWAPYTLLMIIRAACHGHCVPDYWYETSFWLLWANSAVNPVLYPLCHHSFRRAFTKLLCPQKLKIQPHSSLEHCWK

As for “2-[4-(3-piperidin-1-ylpropoxy)-phenyl]-3aH-pyrazolo[1,5-d][1,2,4]triazine [Example 1]”, the IC50 was 6.8 nM and the “inhibition of the binding of N-alpha-methylhistamine (histamine analogue) to histamine-H3 receptor” value was “strongly inhibited”.
“3-Phenyl-6-[6-(3-piperidin-1-ylpropyl)-pyridin-3-ylmethoxy]-[1,2,4]triazolo[3,4-a]phthalazine [Example 24]”: the IC50 amounted to 10 nM and the “inhibition of the binding of N-alpha-methylhistamine (histamine analogue) to histamine-H3 receptor” value was “strongly inhibited”.
Regarding `c1cc(-c2ccc3nncn3n2)ccc1OCCCN1CCCCC1` [Example 10, 6-[4-(3-piperidin-1-ylpropoxy)phenyl]-[1,2,4]triazolo[4,3-b]pyridazine], the IC50 came out at 1.8 nM and the “inhibition of the binding of N-alpha-methylhistamine (histamine analogue) to histamine-H3 receptor” value is “strongly inhibited”.
Consider `Cc1nn2cnnc2cc1-c1ccc(OCCCN2CCCCC2)cc1` [Example 19, 6-Methyl-7-[4-(3-Piperidin-1-ylpropoxy)-phenyl]-[1,2,4]triazolo[4,3-b]pyridazine], for which the IC50 was found to be 1.4 nM and the “inhibition of the binding of N-alpha-methylhistamine (histamine analogue) to histamine-H3 receptor” value is reported as “strongly inhibited”.
Consider `Cc1nnc2c3cccnc3c(-c3ccc(OCCCN4CCCCC4)cc3)nn12` [Example 30, 3-Methyl-6-[4-(3-piperidin-1-ylpropoxy)-phenyl]-pyrido[3,2-d][1,2,4]triazolo[4,3-b]pyridazine], for which the IC50 is 0.1 nM and the “inhibition of the binding of N-alpha-methylhistamine (histamine analogue) to histamine-H3 receptor” value is “strongly inhibited”.
Regarding `c1cc2c(-c3ccc(OCCCN4CCCCC4)cc3)nn3cnnc3c2cn1` [Example 69], the IC50 is 0.23 nM and the “inhibition of the binding of N-alpha-methylhistamine (histamine analogue) to histamine-H3 receptor” value was “strongly inhibited”.
